Data as given in patent US20240262803A1, “COMPOUNDS, COMPOSITIONS AND METHODS OF TREATING DISORDERS” (Chungdu Anticancer Bioscience Ltd, priority 2021, published 2024).
pEC50: −log10 of the molar value. “Also recorded” adds a separate entry of the source.

Experiments:
[1] = system: gastric cancer cell line NCI-N87; assay: Minimal effective concentration that elicits polyploidy, NCI-N87; assay type: cell-based; settings: Homo sapiens, read-out: MECP: Minimal effective concentration that elicits polyploidy
[2] = system: breast cancer cell line MDA-MB-231; assay: MTT assay of cellular proliferation, MDA-MB-231; assay type: cell-based; settings: Homo sapiens, read-out: EC50: Concentration that inhibits 50% of proliferation
Method in brief: (§1)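 Cells were grown in DMEM with 5% FBS, glutamine and pyruvate at 37 °C, 5% CO2, seeded to reach 20˜30% confluence after 15˜24 h, then exposed to compounds from 1 nM to 10 μM. Formazan from MTT was read at 570 nm, and EC50 was the concentration giving 50% inhibition of proliferation.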

[3] = system: lung cancer cell line NCI-H23; assay: Minimal effective concentration that elicits polyploidy, NCI-H23; assay type: cell-based; settings: Homo sapiens, read-out: MECP: Minimal effective concentration that elicits polyploidy
[4] = system: lung cancer cell line NCI-H460; assay: Minimal effective concentration that elicits polyploidy, NCI-H460; assay type: cell-based, human
[5] = system: cervical cancer cell line Hela; assay: Soft agar colony formation assay, Hela; assay type: cell-based, human; settings: 3D culture, FIG. 2
Description: (§2) Six lung cancer cell lines (NCI-H23, NCI-H460, NCI-H596, NCI-H2170, Calu-6 and A549), two colon cancer cell lines (HCT116 and SW460), one breast cancer cell line MDA-MB-231, one gastric cancer cell line NCI-N87, one prostate cancer cell line DU145, one cervical cancer cell line Hela, and one glioblastoma cell line T98G were obtained from ATCC. The T2 HCC cell line was derived from a mouse liver cancer model initiated by a transgene of MYC (Reference). All cell lines were cultured in DMEM (Gibco, Cleveland, TN, USA) supplemented with 5% fetal bovine serum (Gibco), penicillin (100 U/mL)-streptomycin (100 μg/mL) (Gibco, Cat. No. 15140-122), 2 mM L-glutamine (Gibco, 200 mM solution, Cat. No. 25030081), and 1 mM sodium pyruvate (Gibco, 100 mM solution, Cat. No. 11360070) at 37° C. in a humidified incubator that was maintained at 5% CO2.
(§3) Measuring the ability of cells to grow in soft agar has been popularly believed as the gold standard assay for cellular transformation in vitro. In the Soft Agar Assay, cells grow from single cells to cell colonies in a semi-solid agar solution that keeps them away from the solid surface and allows growth in an anchorage-independent way.
The anchorage-independent growth of cells is one of the hallmarks of cancer cells. […] Cell culture medium was changed once every two days until colonies were ready to photograph. […]

[6] = system: lung cancer cell line NCI-H596; assay: MTT assay of cellular proliferation, NCI-H596; assay type: cell-based; settings: Homo sapiens, read-out: EC50: Concentration that inhibits 50% of proliferation
Description: as §2
(§4) The MTT assay measures cellular metabolic activity as a proxy for cell viability and involves the conversion of the water-soluble yellow dye MTT [3-(4,5-dimethylthiazol-2-yl)-2,5-diphenyltetrazolium bromide] into an insoluble purple formazan by the action of mitochondrial reductase. Formazan is then solubilized and its concentration is determined by measuring the optical density (OD) value at a wavelength of 570 nm. The value is in proportional to the number of live cells with excellent linearity up to ˜10^6 cells per well. The MTT assay was used to determine the EC50 value, the concentration of a compound that leads to 50% inhibition of cellular proliferation. Briefly, cells were split when growing to the mid-Log phase. Cells in 100 μL of culture medium were seeded into each well of 96-well microplates and cultivated for 15˜24 hours to reach a confluence of 20˜30% and were then exposed to drugs at concentrations ranging from 1 nM to 10 μM. At the endpoint, 20 μL of a MTT stock solution in DMSO (5 mg/mL) was added to each well that contains […] of DMEM. The microplates were left in the cell culture incubator for 3˜4 h before subjected to solubilization and determination of formazan at A570 in a microplate reader (BioTek ELX808iu). […] Therefore, these compounds might hold a broad utility in the treatment of a large variety of human malignancies.

[7] = system: lung cancer cell line A549; assay: MTT assay of cellular proliferation, A549; assay type: cell-based; settings: Homo sapiens, read-out: EC50: Concentration that inhibits 50% of proliferation
Method in brief: as §1

[8] = system: lung cancer cell line NCI-H596; assay: Minimal effective concentration that elicits polyploidy, NCI-H596; assay type: cell-based, human
[9] = system: glioblastoma cell line T98G; assay: Minimal effective concentration that elicits polyploidy, T98G; assay type: cell-based, human
[10] = system: glioblastoma cell line T98G; assay: MTT assay of cellular proliferation, T98G; assay type: cell-based; settings: Homo sapiens, read-out: EC50: Concentration that inhibits 50% of proliferation
Description: as §2, §4

[11] = system: cervical cancer cell line Hela; assay: MTT assay of cellular proliferation, Hela; assay type: cell-based; settings: Homo sapiens, read-out: EC50: Concentration that inhibits 50% of proliferation
Method in brief: as §1

[12] = system: gastric cancer cell line NCI-N87; assay: MTT assay of cellular proliferation, NCI-N87; assay type: cell-based; settings: Homo sapiens, read-out: EC50: Concentration that inhibits 50% of proliferation
Method in brief: as §1

[13] = system: liver cancer cell line T2 HCC; assay: Minimal effective concentration that elicits polyploidy, T2 HCC; assay type: cell-based; settings: Mus musculus, read-out: MECP: Minimal effective concentration that elicits polyploidy
[14] = system: colon cancer cell line HCT116; assay: Minimal effective concentration that elicits polyploidy, HCT116; assay type: cell-based; settings: Homo sapiens, HCT-116, read-out: MECP: Minimal effective concentration that elicits polyploidy
[15] = system: breast cancer cell line MDA-MB-231; assay: Minimal effective concentration that elicits polyploidy, MDA-MB-231; assay type: cell-based; settings: Homo sapiens, read-out: MECP: Minimal effective concentration that elicits polyploidy
[16] = system: lung cancer cell line Calu-6; assay: MTT assay of cellular proliferation, Calu-6; assay type: cell-based; settings: Homo sapiens, read-out: EC50: Concentration that inhibits 50% of proliferation
Description: as §2, §4

[17] = system: human lung cancer cell line NCI-H23; assay: Soft agar colony formation assay, NCI-H23; assay type: cell-based; settings: NCI-H23, 3D culture, FIG. 2
Description: as §2, §3
The anchorage-independent growth of cells is one of the hallmarks of cancer cells. Normal epithelial cells are supported by basement membranes that provide survival and proliferative signals while undergo a type of apoptosis called anoikis when lose their attachment to the extracellular matrix. Cancer cells, in contrast, evade attachment-induced apoptosis, leading to uncontrolled proliferation and metastasis. The Soft Agar Colony Formation Assay allows testing of the therapeutic efficacy of compounds against anchorage-independent 3D growth of cancer cells in vitro. The assay was performed in 6-well plates with two layers of agar. For the first, 0.75% agar in DMEM medium was melted in a microwave oven and poured to form a bottom layer. […] Cell culture medium was changed once every two days until colonies were ready to photograph. […]

[18] = system: colon cancer cell line SW460; assay: MTT assay of cellular proliferation, SW460; assay type: cell-based; settings: Homo sapiens, SW480; read-out: EC50: Concentration that inhibits 50% of proliferation
Method in brief: as §1

SW480 = assay: Minimal effective concentration that elicits polyploidy, SW480; assay type: cell-based; settings: Homo sapiens, read-out: MECP: Minimal effective concentration that elicits polyploidy

pEC50 [2]	pEC50 [6]	pEC50 [7]	pEC50 [10]	pEC50 [11]	pEC50 [12]	pEC50 [16]	pEC50 [18]	SMILES	minimal effective concentration [1] [µM]	minimal effective concentration [3] [µM]	MECP: Minimal effective concentration that elicits polyploidy [4]	anchorage-independent growth in soft agar [5]	MECP: Minimal effective concentration that elicits polyploidy [8]	MECP: Minimal effective concentration that elicits polyploidy [9]	minimal effective concentration [13] [µM]	minimal effective concentration [14] [µM]	minimal effective concentration [15] [µM]	anchorage-independent growth in soft agar [17]	minimal effective concentration (SW480) [µM]
6.00 to 9.00	4.52 to 5.00	4.52 to 5.00	6.00 to 9.00	6.00 to 9.00	6.00 to 9.00	6.00 to 9.00		COC(=O)c1cc(Oc2ncccc2-c2ccncc2)cc(C(=O)OC)c1 [Compound 1, Dimethyl 5-([3,4′-bipyridin]-2-yloxy)isophthalate]	0.001 to 1	0.001 to 1	B (B: 1 μM < conc. ≤ 10 μM)	Suppress the Anchorage-independent Growth; also recorded: effectively suppressed the anchorage-independent growth	A (A: 1 nM < conc. ≤ 1 μM)	A (A: 1 nM < conc. ≤ 1 μM)	0.001 to 1	0.001 to 1	0.001 to 1	completely blocked the growth	
6.00 to 9.00	6.00 to 9.00	4.52 to 5.00	6.00 to 9.00	6.00 to 9.00	6.00 to 9.00	6.00 to 9.00	6.00 to 9.00	COC(=O)c1cc(OC)cc(Oc2ncccc2-c2ccncc2)c1 [Compound 2, Methyl 3-([3,4′-bipyridin]-2-yloxy)-5-methoxybenzoate]	0.001 to 1	0.001 to 1	B (B: 1 μM < conc. ≤ 10 μM)		A (A: 1 nM < conc. ≤ 1 μM)	A (A: 1 nM < conc. ≤ 1 μM)	0.001 to 1	0.001 to 1	0.001 to 1	Suppresses the Anchorage-independent Growth; also recorded: completely blocked the growth	0.001 to 1
6.00 to 9.00	5.00 to 6.00		5.00 to 6.00	6.00 to 9.00	6.00 to 9.00	6.00 to 9.00		COC(=O)c1cc(Oc2ncccc2-c2ccnc(N)n2)cc(C(=O)OC)c1 [Compound 21, dimethyl 5-((3-(2-aminopyrimidin-4-yl)pyridin-2-yl)oxy)isophthalate]	0.001 to 1	0.001 to 1	B (B: 1 μM < conc. ≤ 10 μM)	Suppress the Anchorage-independent Growth; also recorded: effectively suppressed the anchorage-independent growth	A (A: 1 nM < conc. ≤ 1 μM)	B (B: 1 μM < conc. ≤ 10 μM)	0.001 to 1	0.001 to 1	0.001 to 1		
6.00 to 9.00	6.00 to 9.00	4.52 to 5.00	4.52 to 5.00	6.00 to 9.00	6.00 to 9.00	6.00 to 9.00	6.00 to 9.00	COC(=O)c1cc(OC)cc(Oc2ncccc2-c2ccnc(N)n2)c1 [Compound 23, Methyl 3-((3-(2-aminopyrimidin-4-yl)pyridin-2-yl)oxy)-5-methoxybenzoate]	0.001 to 1	0.001 to 1	B (B: 1 μM < conc. ≤ 10 μM)		A (A: 1 nM < conc. ≤ 1 μM)	A (A: 1 nM < conc. ≤ 1 μM)	0.001 to 1	0.001 to 1	0.001 to 1	Suppress the Anchorage-independent Growth; also recorded: completely blocked the growth	0.001 to 1
